Test results as given in patent US10710951B2, “Pharmaceutical composition containing verbenone derivative for treating or preventing neurodegenerative disease” (KOREA UNIVERSITY RESEARCH AND BUSINESS FOUNDATION, priority 2012, dated 2020).

System: cortical neurons
Assay: Oxygen-glucose deprivation (OGD)/reoxygenation neuronal injury, LDH release
Type: cell-based
Conditions: rat cortical neurons, FIG. 1
Experimental: Cortical neurons (5×10^5 cells/ml) were isolated from fetal SD rats (16-17 days). Specifically, brain cortex was cut, and cells were isolated from the tissue by repeated trituration using a Pasteur pipette in buffer (Hanks' Balanced Salt Solution, HBSS). The cell suspension (1.8×10^3 cells/mm^2) was dispensed on a plate pretreated with poly-D-lysine ([…])/laminin ([…]). The cells were placed in 10% FBS-containing NBM medium, and incubated in a […]/5% CO2 atmosphere at 37° C. After 15-16 days of the incubation, the experiment was performed.
In order to induce hypoxic-ischemic symptoms in vitro, the incubated cells were placed in an anoxic chamber (partial oxygen pressure <2 mmHg). The cells were incubated glucose-free DMEM while being bubbled with an anaerobic gas mixture (95% N2 and 5% CO2) for 30 minutes to remove residual oxygen, and were incubated at 37° C. for 90 minutes for oxygen deprivation. After 90 minutes, the exposed solution was replaced with 25 mmol/L glucose-containing DMEM medium to stop the OGD reaction, and the cells were restored to normal oxygen conditions. Control cells not exposed to OGD were incubated in glucose (25 mmol/L)-containing DMEM medium provided with an aerobic gas mixture (95% air and 5% CO2). The cells were treated with each sample 30 minutes before, and during the entire period of OGD/re-oxygenation.
In order to measure cell injury or cell death, the amount of LDH released into the medium was measured using a cell viability measurement kit (Sigma-Aldrich, St. Louis, Mo.). Cell viability was expressed as the percentage of LDH relative to the total cellular LDH level measured in sister cultures lysed by freezing-thawing after the experiment.

SMILES: COc1cc(C=CC2=CC(=O)[C@H]3C[C@@H]2C3(C)C)cc(O)c1O [Compound 3f, (1S,5R)-4-(3,4-dihydroxy-5-methoxystyryl)-6,6-dimethylbicyclo[3.1.1]hept-3-en-2-one]
- neuronal injury induced by OGD (LDH release) (OGD/reoxygenation, comparable to MK801): significantly reduced neuronal injury
- cytotoxicity: showed no cytotoxicity
